Source: PubChem BioAssay AID1259407 (Chemical Carcinogenesis Research Information System (CCRIS), 2018)
Calls of active or inactive are those of the source. No rule for the calls is given here.

Tested on: CCRIS mutagenicity, Ames/micronucleus/aberration tests
Test: CCRIS mutagenicity studies
[1] = Test System: AMES SALMONELLA TYPHIMURIUM, Strain/Indicator: TA98, Metabolic Activation: NONE, Method: PREINCUBATION
[2] = Test System: AMES SALMONELLA TYPHIMURIUM, Strain/Indicator: TA98, Metabolic Activation: RAT, LIVER, S-9, PHENOBARBITAL AND 5,6-BENZOFLAVONE, Method: PREINCUBATION
[3] = Test System: AMES SALMONELLA TYPHIMURIUM, Strain/Indicator: TA100, Metabolic Activation: NONE, Method: PREINCUBATION
[4] = Test System: AMES SALMONELLA TYPHIMURIUM, Strain/Indicator: TA100, Metabolic Activation: RAT, LIVER, S-9, PHENOBARBITAL AND 5,6-BENZOFLAVONE, Method: PREINCUBATION
[5] = Test System: AMES SALMONELLA TYPHIMURIUM, Strain/Indicator: TA1535, Metabolic Activation: NONE, Method: PREINCUBATION
[6] = Test System: AMES SALMONELLA TYPHIMURIUM, Strain/Indicator: TA1535, Metabolic Activation: RAT, LIVER, S-9, PHENOBARBITAL AND 5,6-BENZOFLAVONE, Method: PREINCUBATION
[7] = Test System: AMES SALMONELLA TYPHIMURIUM, Strain/Indicator: TA1537, Metabolic Activation: NONE, Method: PREINCUBATION
[8] = Test System: AMES SALMONELLA TYPHIMURIUM, Strain/Indicator: TA1537, Metabolic Activation: RAT, LIVER, S-9, PHENOBARBITAL AND 5,6-BENZOFLAVONE, Method: PREINCUBATION
[9] = Test System: E. COLI, Strain/Indicator: WP2 UVRA, Metabolic Activation: NONE, Method: PREINCUBATION
[10] = Test System: E. COLI, Strain/Indicator: WP2 UVRA, Metabolic Activation: RAT, LIVER, S-9, PHENOBARBITAL AND 5,6-BENZOFLAVONE, Method: PREINCUBATION
[11] = Test System: AMES SALMONELLA TYPHIMURIUM, Strain/Indicator: TA98, Metabolic Activation: NONE, Method: STANDARD PLATE
[12] = Test System: AMES SALMONELLA TYPHIMURIUM, Strain/Indicator: TA100, Metabolic Activation: NONE, Method: STANDARD PLATE
[13] = Test System: AMES SALMONELLA TYPHIMURIUM, Strain/Indicator: TA1535, Metabolic Activation: NONE, Method: STANDARD PLATE

Which results are given for `CO/N=C(\C(=O)N[C@@H]1C(=O)N2C(C(=O)OCOC(=O)C(C)(C)C)=C(/C=C\c3scnc3C)CS[C@H]12)c1csc(N)n1`?
mutagenic call [1]: inactive; negative; mutagenic call [2]: inactive; negative; mutagenic call [3]: inactive; negative; mutagenic call [4]: inactive; negative; mutagenic call [5]: inactive; negative; mutagenic call [6]: inactive; negative; mutagenic call [7]: inactive; negative; mutagenic call [8]: inactive; negative; mutagenic call (Test System: AMES SALMONELLA TYPHIMURIUM, Strain/Indicator: TA1538, Metabolic Activation: NONE, Method: PREINCUBATION): inactive; negative; mutagenic call (Test System: AMES SALMONELLA TYPHIMURIUM, Strain/Indicator: TA1538, Metabolic Activation: RAT, LIVER, S-9, PHENOBARBITAL AND 5,6-BENZOFLAVONE, Method: PREINCUBATION): inactive; negative; mutagenic call [9]: inactive; negative; mutagenic call [10]: inactive; negative; mutagenic call (Test System: MOUSE LYMPHOMA, Strain/Indicator: L5178Y (TK+/TK-), Metabolic Activation: NONE): inactive; negative; mutagenic call (Test System: MOUSE LYMPHOMA, Strain/Indicator: L5178Y (TK+/TK-), Metabolic Activation: RAT, LIVER, S-9, PHENOBARBITAL AND 5,6-BENZOFLAVONE): inactive; negative; mutagenic call (Test System: UDS RAT STOMACH MUCOSA CELLS, Strain/Indicator: THY INCORP, Metabolic Activation: NONE, Method: IN VIVO-IN VITRO): inactive; negative

With `Cn1cc(C[C@@]2(O)C(=O)O[C@@H]3[C@@H](O)CO[C@@]32O)c2ccccc21` as the molecule, how does the mutagenic call [11] read?
The mutagenic call was “active; positive”.

And the mutagenic call (Test System: AMES SALMONELLA TYPHIMURIUM, Strain/Indicator: TA98, Metabolic Activation: RAT, LIVER, S-9, PCB, Method: STANDARD PLATE)?
Its mutagenic call is “active; positive”.

And the mutagenic call [12]?
The mutagenic call was “active; positive”.

What about the mutagenic call (Test System: AMES SALMONELLA TYPHIMURIUM, Strain/Indicator: TA100, Metabolic Activation: RAT, LIVER, S-9, PCB, Method: STANDARD PLATE) of the same molecule?
Its mutagenic call is “active; positive”.

`OC[C@@H](O)[C@@H](O[C@@H]1O[C@H](CO)[C@H](O)[C@H](O)[C@H]1O)[C@H](O)[C@@H](O)CO` was tested. Which mutagenic call [1] did it give?
The mutagenic call was “inactive; negative”.

And the mutagenic call [2]?
Its mutagenic call is “inactive; negative”.

What about the mutagenic call [3] of the same molecule?
The mutagenic call was “inactive; negative”.

And the mutagenic call [4]?
The mutagenic call was “inactive; negative”.

What about the mutagenic call [5] of the same molecule?
The mutagenic call was “inactive; negative”.

What about the mutagenic call [6] of the same molecule?
Its mutagenic call is “inactive; negative”.

What about the mutagenic call [7] of the same molecule?
Its mutagenic call is “inactive; negative”.

And the mutagenic call [8]?
Its mutagenic call is “inactive; negative”.

What about the mutagenic call [9] of the same molecule?
Its mutagenic call is “inactive; negative”.

What about the mutagenic call [10] of the same molecule?
The mutagenic call was “inactive; negative”.

Which mutagenic call (Test System: CHINESE HAMSTER OVARY, Strain/Indicator: CHO-K1-BH4 (HGPRT)/6-THIOGUANINE, Metabolic Activation: RAT, LIVER, S-9, AROCLOR (4%)) does the source give for `Oc1ccc2[nH]c3ccccc3c2c1` here?
The mutagenic call was “active; positive”.

Which mutagenic call [11] does the source give for `CN(C)CCCNc1c2ccccc2nc2c(F)ccc([N+](=O)[O-])c12` here?
The mutagenic call was “active; positive”.

What about the mutagenic call [12] of the same molecule?
Its mutagenic call is “active; positive”.

With `O=NN(CCCl)C(=O)NCCCl` as the molecule, how does the mutagenic call (End Point: In vitro micronucleus, Test System: Human lymphoblastoid TK6 cells, Metabolic Activation: None) read?
Its mutagenic call is “active; positive (not dose related)”.

What about the mutagenic call [13] of the same molecule?
Its mutagenic call is “active; positive”.

And the mutagenic call (Test System: CHINESE HAMSTER OVARY, Strain/Indicator: D422 (APRT), Metabolic Activation: NONE, Method: REPLATING)?
Its mutagenic call is “active; positive”.

What about the mutagenic call (Test System: CHINESE HAMSTER V-79, Strain/Indicator: V-79/6-THIOGUANINE, Metabolic Activation: NONE, Method: STANDARD PLATE) of the same molecule?
Its mutagenic call is “active; positive”.

Which results are given for `CN(C)N=Nc1ccc([N+](=O)[O-])cc1`?
mutagenic call (Test System: AMES SALMONELLA TYPHIMURIUM, Strain/Indicator: TA92, Metabolic Activation: MOUSE, LIVER, S-9, POLYCHLORINATED BIPHENYLS, Method: PREINCUBATION): active; positive; mutagenic call (Test System: AMES SALMONELLA TYPHIMURIUM, Strain/Indicator: TA92, Metabolic Activation: MOUSE, LIVER, S-9, POLYCHLORINATED BIPHENYLS, Method: STANDARD PLATE): active; positive; mutagenic call (Test System: AMES SALMONELLA TYPHIMURIUM, Strain/Indicator: TA92, Metabolic Activation: NONE, Method: STANDARD PLATE): active; positive; mutagenic call (Test System: AMES SALMONELLA TYPHIMURIUM, Strain/Indicator: TA97, Metabolic Activation: MOUSE, LIVER, S-9, POLYCHLORINATED BIPHENYLS, Method: PREINCUBATION): active; positive; mutagenic call (Test System: AMES SALMONELLA TYPHIMURIUM, Strain/Indicator: TA97, Metabolic Activation: MOUSE, LIVER, S-9, POLYCHLORINATED BIPHENYLS, Method: STANDARD PLATE): active; positive; mutagenic call (Test System: AMES SALMONELLA TYPHIMURIUM, Strain/Indicator: TA97, Metabolic Activation: NONE, Method: STANDARD PLATE): active; positive; mutagenic call (Test System: AMES SALMONELLA TYPHIMURIUM, Strain/Indicator: TA98, Metabolic Activation: MOUSE, LIVER, S-9, POLYCHLORINATED BIPHENYLS, Method: PREINCUBATION): active; positive; mutagenic call (Test System: AMES SALMONELLA TYPHIMURIUM, Strain/Indicator: TA98, Metabolic Activation: MOUSE, LIVER, S-9, POLYCHLORINATED BIPHENYLS, Method: STANDARD PLATE): active; positive; mutagenic call [11]: active; positive; mutagenic call (Test System: AMES SALMONELLA TYPHIMURIUM, Strain/Indicator: TA100, Metabolic Activation: MOUSE, LIVER, S-9, POLYCHLORINATED BIPHENYLS, Method: PREINCUBATION): active; positive; mutagenic call (Test System: AMES SALMONELLA TYPHIMURIUM, Strain/Indicator: TA100, Metabolic Activation: MOUSE, LIVER, S-9, POLYCHLORINATED BIPHENYLS, Method: STANDARD PLATE): active; positive; mutagenic call [12]: active; positive; mutagenic call (Test System: AMES SALMONELLA TYPHIMURIUM, Strain/Indicator: TA1535, Metabolic Activation: MOUSE, LIVER, S-9, POLYCHLORINATED BIPHENYLS, Method: PREINCUBATION): active; positive; mutagenic call (Test System: AMES SALMONELLA TYPHIMURIUM, Strain/Indicator: TA1535, Metabolic Activation: MOUSE, LIVER, S-9, POLYCHLORINATED BIPHENYLS, Method: STANDARD PLATE): active; positive; mutagenic call [13]: active; positive; mutagenic call (Test System: AMES SALMONELLA TYPHIMURIUM, Strain/Indicator: TA1537, Metabolic Activation: MOUSE, LIVER, S-9, POLYCHLORINATED BIPHENYLS, Method: PREINCUBATION): active; positive; mutagenic call (Test System: AMES SALMONELLA TYPHIMURIUM, Strain/Indicator: TA1537, Metabolic Activation: MOUSE, LIVER, S-9, POLYCHLORINATED BIPHENYLS, Method: STANDARD PLATE): active; positive; mutagenic call (Test System: AMES SALMONELLA TYPHIMURIUM, Strain/Indicator: TA1537, Metabolic Activation: NONE, Method: STANDARD PLATE): active; positive; mutagenic call (Test System: AMES SALMONELLA TYPHIMURIUM, Strain/Indicator: TA1538, Metabolic Activation: MOUSE, LIVER, S-9, POLYCHLORINATED BIPHENYLS, Method: PREINCUBATION): active; positive; mutagenic call (Test System: AMES SALMONELLA TYPHIMURIUM, Strain/Indicator: TA1538, Metabolic Activation: MOUSE, LIVER, S-9, POLYCHLORINATED BIPHENYLS, Method: STANDARD PLATE): active; positive; mutagenic call (Test System: AMES SALMONELLA TYPHIMURIUM, Strain/Indicator: TA1538, Metabolic Activation: NONE, Method: STANDARD PLATE): active; positive
